Results taken from patent publication US20240368191A1, “HETEROCYCLIC COMPOUNDS AND USES THEREOF” (Kumquat Biosciences Inc., priority 2021, published 2024).

Assays:
[1] = Metabolic (microsomal) stability assay; conditions: pooled liver microsomes, pH 7.4
[2] = target: T1, KRAS G12D 1-169 (His-tagged, GDP-loaded) (Homo sapiens, UniProt P01116, G12D); assay: Covalent modification of KRAS protein by intact-protein LC-MS; format: binding; conditions: comparable or same conditions as K-Ras G12S
T1 construct: His -tagged GDP-loaded G12D 1-169; made in house; host or cells: E. coli, e.g. BL21 (DE3)
Protocol: Test compounds are prepared as 10 mM stock solutions in DMSO (Fisher cat #BP231-100). KRAS protein (His -tagged GDP-loaded wildtype 1-169, His -tagged GDP-loaded G12S 1-169 or His -tagged GDP-loaded G12D 1-169) is diluted to ˜2 μM in appropriate buffer (e.g., a Hepes buffer at physiological conditions). For testing KRAS modification, compounds are diluted to 50× final test concentration in DMSO in 96-well storage plates. 2 μl of the diluted 50× compounds are added to appropriate wells in the PCR plate (Fisher cat #AB-0800). ˜49 μl of the stock protein solution is added to each well of the 96-well PCR plate. Reactions are mixed carefully. The plate is sealed well with aluminum plate seal, and stored in drawer at room temperature for 24 hrs. 5 μl of 2% formic acid (Fisher cat #A117-50) in MilliQ H2O is then added to each well followed by mixing with a pipette. The plate is then resealed with aluminum seal and stored until mass spectrometry analysis.
The extent of covalent modification of KRAS proteins was determined by liquid chromatography electrospray mass spectrometry analysis of the intact proteins on a Thermo Q-Exactive Plus mass spectrometer. 20 μl of sample was injected onto a bioZen 3.6 μm Intact C4 column (Phenomenex cat #00B-4767-AN) placed in a column oven set to 40° C. and separated using a suitable LC gradient from ˜20% to ˜60% solvent B. Solvent A was 0.1% formic acid and solvent B was 0.1% formic acid in acetonitrile. HESI source settings were set to 40, 5 and 1 for the sheath, auxiliary and sweep gas flow, respectively. The spray voltage was 4 kV, and the capillary temperature was 320° C. S-lens RF level was 50 and auxiliary gas heater temperature was set to 200° C. The mass spectrometry was acquired using a scan range from 650 to 1750 m/z using positive polarity at a mass resolution of 70,000, AGC target of 1e6 ions and maximum injection time of 250 ms. The recorded protein mass spectrum was deconvoluted from the raw data file using Protein Deconvolution v4.0 (Thermo). The protein mass and adduct masses were exported with their peak intensities. The peak intensities for the unmodified and modified protein were used to calculate the percent covalent modification of the KRAS protein based on the following equation: % KRAS protein modification=((KRAS−compound)/(KRAS)+(KRAS−Compound))*100.

T1 sequence (P01116 1-169 isoform P01116-2 G12D): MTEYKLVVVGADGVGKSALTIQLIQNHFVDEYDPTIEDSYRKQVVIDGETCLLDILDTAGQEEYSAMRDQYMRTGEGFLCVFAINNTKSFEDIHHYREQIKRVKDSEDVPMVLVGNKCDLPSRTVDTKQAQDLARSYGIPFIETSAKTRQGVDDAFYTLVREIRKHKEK

Row | Compound | half-life at 0.5 μM [1] [min] | covalent labeling of K-Ras G12D [2]
1 | N#Cc1c(N)sc2c(F)ccc(-c3c(Cl)cc4c(O[C@@H]5CCN(C(=O)n6cncn6)C5)nc(OCC56CCCN5C[C@H](F)C6)nc4c3F)c12 (stereo partly drawn) [Compound A213, 4-(4-(((R)-1-(1H-1,2,4-triazole-1-carbonyl)pyrrolidin-3-yl)oxy)-6-chloro-8-fluoro-2-(((2R)-2-fluorotetrahydro-1H-pyrrolizin-7a(5H)-yl)methoxy)quinazolin-7-yl)-2-amino-7-fluorobenzo-[b]thiophene-3-carbonitrile] | > 10 | essentially no detectable labeling
2 | CN1CCC[C@H]1COc1nc(N2CCOC3(CN(C(=O)n4cncn4)C3)C2)c2cc(Cl)c(-c3ccc(F)c4sc(N)c(C#N)c34)c(F)c2n1 [Compound A182, 4-(4-(2-(1H-1,2,4-triazole-1-carbonyl)-5-oxa-2,8-diazaspiro-[3.5]nonan-8-yl)-6-chloro-8-fluoro-2-(((S)-1-methylpyrrol-idin-2-yl)methoxy)quinazolin-7-yl)-2-amino-7-fluorobenzo-[b]thiophene-3-carbonitrile] | > 10 | essentially no detectable labeling
3 | N#Cc1c(N)sc2c(F)ccc(-c3c(Cl)cc4c(N5CCN(CC6CC6)C6(CN(C(=O)n7cncn7)C6)C5)nc(OC[C@@]56CCCN5C[C@H](F)C6)nc4c3F)c12 [Compound A139, 2-amino-4-(6-chloro-4-(5-(cyclopropylmethyl)-2-(1H-1,2,4-triazole-1-carbonyl)-2,5,8-triazaspiro[3.5]nonan-8-yl)-8-fluoro-2-(((2R,7aS)-2-fluoro-tetrahydro-1H-pyrrolizin-7a(5H)-yl)methoxy)quinazolin-7-yl)-7-fluorobenzo[b]thiophene-3-carbonitrile] | > 10 | –
4 | Nc1nc2c(-c3c(Cl)cc4c(N5CCOC6(CCN(C(=O)n7cncn7)C6)C5)nc(OC[C@@]56CCCN5C[C@H](F)C6)nc4c3F)ccc(F)c2s1 (stereo partly drawn) [Compound A221, (9-(7-(2-amino-7-fluorobenzo-[d]thiazol-4-yl)-6-chloro-8-fluoro-2-(((2R,7aS)-2-fluoro-tetrahydro-1H-pyrrolizin-7a(5H)-yl)methoxy)quinazolin-4-yl)-6-oxa-2,9-diazaspiro[4.5]-decan-2-yl)(1H-1,2,4-triazol-1-yl)methanone] | > 10 | essentially no detectable labeling
5 | N#Cc1c(N)sc2c(F)ccc(-c3c(Cl)cc4c(N5CC6(CN(C(=O)n7cncn7)CCO6)C5)nc(OC[C@@]56CCCN5C[C@H](F)C6)nc4c3F)c12 [Compound A140, 4-(4-(8-(1H-1,2,4-triazole-1-carbonyl)-5-oxa-2,8-diaza-spiro[3.5]nonan-2-yl)-6-chloro-8-fluoro-2-(((2R,7aS)-2-fluoro-tetrahydro-1H-pyrrolizin-7a(5H)-yl)methoxy)quinazolin-7-yl)-2-amino-7-fluorobenzo-[b]thiophene-3-carbonitrile] | > 10 | –
6 | Nc1nc2c(-c3c(Cl)cc4c(N5CCCC6(CN(C(=O)n7cncn7)C6)C5)nc(OC[C@@]56CCCN5C[C@H](F)C6)nc4c3F)ccc(F)c2s1 [Compound A136, (6-(7-(2-amino-7-fluorobenzo-[d]thiazol-4-yl)-6-chloro-8-fluoro-2-(((2R,7aS)-2-fluoro-tetrahydro-1H-pyrrolizin-7a(5H)-yl)methoxy)quinazolin-4-yl)-2,6-diazaspiro[3.5]nonan-2-yl)(1H-1,2,4-triazol-1-yl)-methanone] | > 10 | –
7 | N#Cc1c(N)sc2c(F)ccc(-c3c(Cl)cc4c(N5CCC6CN(C(=O)Nc7ncccn7)CCC65)nc(OC[C@@]56CCCN5C[C@H](F)C6)nc4c3F)c12 (single isomer, unassigned) [Compound A271] | > 10 | –
8 | N#CC[C@H]1CN(c2nc(OC[C@@]34CCCN3C[C@H](F)C4)nc3c(F)c(-c4ccc(F)c5sc(N)nc45)c(Cl)cc23)CCN1C(=O)n1cncn1 [Compound A145, 2-((2S)-4-(7-(2-amino-7-fluorobenzo[d]thiazol-4-yl)-6-chloro-8-fluoro-2-(((2R,7aS)-2-fluorotetrahydro-1H-pyrrolizin-7a(5H)-yl)methoxy)quinazolin-4-yl)-1-(1H-1,2,4-triazole-1-carbonyl)piperazin-2-yl)aceto-nitrile] | > 10 | –
9 | Cc1ncn(C(=O)N2CCCC(Oc3nc(OC[C@@]45CCCN4C[C@H](F)C5)nc4c(F)c(-c5ccc(F)c6sc(N)c(C#N)c56)c(Cl)cc34)CC2)n1 (stereo partly drawn) [Compound A174, 2-amino-4-(6-chloro-8-fluoro-2-(((2R,7aS)-2-fluorotetra-hydro-1H-pyrrolizin-7a(5H)-yl)methoxy)-4-((1-(3-methyl-1H-1,2,4-triazole-1-carbonyl)-azepan-4-yl)oxy)quinazolin-7-yl)-7-fluorobenzo[b]thiophene-3-carbonitrile] | > 10 | –
10 | Nc1nc2c(-c3c(Cl)cc4c(N5CCN(C(=O)n6cncn6)CC5)nc(OC[C@@]56CCCN5C[C@H](F)C6)nc4c3F)ccc(F)c2s1 [Compound A146, (4-(7-(2-amino-7-fluorobenzo-[d]thiazol-4-yl)-6-chloro-8-fluoro-2-(((2R,7aS)-2-fluoro-tetrahydro-1H-pyrrolizin-7a(5H)-yl)methoxy)quinazolin-4-yl)piperazin-1-yl)(1H-1,2,4-triazol-1-yl)methanone] | > 10 | –
11 | Nc1nc2c(-c3c(Cl)cc4c(N5CCC6(CN(C(=O)n7cncn7)C6)C5)nc(OC[C@@]56CCCN5C[C@H](F)C6)nc4c3F)ccc(F)c2s1 [Compound A201, (6-(7-(2-amino-7-fluorobenzo-[d]thiazol-4-yl)-6-chloro-8-fluoro-2-(((2R,7aS)-2-fluoro-tetrahydro-1H-pyrrolizin-7a(5H)-yl)methoxy)quinazolin-4-yl)-2,6-diazaspiro[3.4]octan-2-yl)(1H-1,2,4-triazol-1-yl)-methanone] | > 10 | –
12 | C#Cc1c(F)ccc2cc(O)cc(-c3ncc4c(N5CCOC6(CN(C(=O)n7cncn7)C6)C5)nc(OC[C@@]56CCCN5C[C@H](F)C6)nc4c3F)c12 [Compound A106, (8-(7-(8-ethynyl-7-fluoro-3-hydroxynaphthalen-1-yl)-8-fluoro-2-(((2R,7aS)-2-fluoro-tetrahydro-1H-pyrrolizin-7a(5H)-yl)methoxy)pyrido-[4,3-d]pyrimidin-4-yl)-5-oxa-2,8-diazaspiro[3.5]nonan-2-yl)(1H-1,2,4-triazol-1-yl)-methanone] | > 10 | –
13 | N#Cc1c(N)sc2c(F)ccc(-c3c(Cl)cc4c(N5CCOC6(CN(C(=O)n7cncn7)C6)C5)nc(OC[C@@]56CCCN5C[C@H](F)C6)nc4c3F)c12 [Compound A132, 4-(4-(2-(1H-1,2,4-triazole-1-carbonyl)-5-oxa-2,8-diaza-spiro[3.5]nonan-8-yl)-6-chloro-8-fluoro-2-(((2R,7aS)-2-fluorotetrahydro-1H-pyrrolizin-7a(5H)-yl)methoxy)quinazolin-7-yl)-2-amino-7-fluorobenzo-[b]thiophene-3-carbonitrile] | > 10 | –
14 | N#Cc1c(N)sc2c(F)ccc(-c3c(Cl)cc4c(N5CC6CCCN(C(=O)n7cncn7)C6C5)nc(OC[C@@]56CCCN5C[C@H](F)C6)nc4c3F)c12 (stereo partly drawn) [Compound A284, 4-(4-(1-(1H-1,2,4-triazole-1-carbonyl)octahydro-6H-pyrrolo-[3,4-b]pyridin-6-yl)-6-chloro-8-fluoro-2-(((2R,7aS)-2-fluoro-tetrahydro-1H-pyrrolizin-7a(5H)-yl)methoxy)quinazolin-7-yl)-2-amino-7-fluorobenzo-[b]thiophene-3-carbonitrile] | > 10 | –
15 | C[C@@H]1CN(C(=O)n2cncn2)[C@@H](C)CN1c1nc(OC[C@@]23CCCN2C[C@H](F)C3)nc2c(F)c(-c3ccc(F)c4sc(N)nc34)c(Cl)cc12 [Compound A244, ((2S,5R)-4-(7-(2-amino-7-fluorobenzo[d]thiazol-4-yl)-6-chloro-8-fluoro-2-(((2R,7aS)-2-fluorotetrahydro-1H-pyrrolizin-7a(5H)-yl)methoxy)quinazolin-4-yl)-2,5-dimethylpiperazin-1-yl)(1H-1,2,4-triazol-1-yl)meth-anone] | > 10 | –
